In brackets after ≈: the same amount, converted by molar mass. Some results are limits rather than exact numbers.

Test in all cases: ≥ marks a high value that may be exact or a test limit, other limits are often not marked, values filed in µg/mL are converted to µM
Assay [1] relates to Escherichia coli JW0013.
In assay [2] the test system is Klebsiella pneumoniae NCIMB 13218.
Assay [3] relates to Cronobacter sakazakii DPC 6440.
Assay [4] has as its system Pseudomonas fluorescens NCIMB 9046.
Assay [5] relates to Staphylococcus aureus SA113.
The test system of assay [6] is Staphylococcus aureus RN4220.
In assay [7] the test system is Cronobacter muytjensii ATCC 51329.
Assay [8] deals with Staphylococcus aureus NCTC 8325-4.
Assay [9] relates to Staphylococcus aureus RF122.
The test system of assay [10] is Cronobacter sakazakii DSM 4485.
Assay [11] deals with Escherichia coli NCIMB 11843.
The subject of assay [12] is Staphylococcus aureus Newman.
Assay [13] relates to Cronobacter sakazakii ATCC BAA-894.
Assay [14] has as its system Salmonella enterica subsp. enterica serovar Typhimurium LT2.
Assay [15] has as its system Escherichia coli NCTC 10418.
For assay [16], the system named is Candida albicans NCPF 1467.
Assay [17] deals with Staphylococcus aureus NCTC 10788.
Assay [18] has as its system Bacillus subtilis ATCC 6051.
Assay [19] concerns Pseudomonas aeruginosa ATCC 27853.

The MIC is the lowest concentration that inhibits growth of the organism. A lower MIC goes with greater potency. Compound `CC(C)C[C@H](NC(=O)[C@H](CCCN=C(N)N)NC(=O)[C@@H]1CCCN1C(=O)[C@@H]1CCCN1C(=O)[C@H](CCCN=C(N)N)NC(=O)[C@@H]1CCCN1C(=O)[C@H](CCCN=C(N)N)NC(=O)[C@H](CCCCN)NC(=O)[C@H](CCCN=C(N)N)NC(=O)[C@@H](N)CCCN=C(N)N)C(=O)N1CCC[C@H]1C(=O)N[C@@H](CCCN=C(N)N)C(=O)N1CCC[C@H]1C(=O)N[C@@H](CCCN=C(N)N)C(=O)N1CCC[C@H]1C(=O)N[C@@H](CCCN=C(N)N)C(=O)O` [RRKRPRPPRLPRPRPR] came in with an MIC in assay [1] of 0.3 µM (≈ 0.627 µg/mL).
For `CC(C)C[C@H](NC(=O)[C@H](C)NC(=O)[C@H](CC(N)=O)NC(=O)[C@H](CCC(=O)O)NC(=O)[C@H](CC(N)=O)NC(=O)[C@H](CC(C)C)NC(=O)[C@@H](N)C(C)C)C(=O)N[C@@H](CCCN=C(N)N)C(=O)O` [VLNENALR], the MIC in assay [2] was at least 1250 µM; in assay [3], at least 625 µM; in [4], at least 1250 µM; in [5], at least 625 µM; in assay [6], at least 1250 µM; in [7], at least 2500 µM. For the same compound, the MIC in [8] was at least 1250 µM; in [9], at least 1250 µM; in assay [10] it was at least 2500 µM; in assay [11] it was at least 1250 µM; in [12] it was at least 625 µM; in assay [13] it was at least 2500 µM. Also, the MIC in assay [14] is at least 2500 µM.
Regarding `CC[C@H](C)[C@H](NC(=O)CN)C(=O)NCC(=O)NCC(=O)N[C@@H](C)C(=O)N[C@@H](CC(C)C)C(=O)N[C@@H](CC(C)C)C(=O)N[C@@H](CO)C(=O)N[C@@H](C)C(=O)NCC(=O)N[C@@H](CCCCN)C(=O)N[C@@H](C)C(=O)N[C@@H](C)C(=O)N[C@@H](CC(C)C)C(=O)N[C@@H](CCCCN)C(=O)NCC(=O)N[C@@H](CC(C)C)C(=O)N[C@@H](C)C(=O)N[C@@H](CCCCN)C(=O)NCC(=O)N[C@@H](CC(C)C)C(=O)N[C@@H](C)C(=O)N[C@@H](CCC(=O)O)C(=O)N[C@@H](Cc1cnc[nH]1)C(=O)N[C@@H](Cc1ccccc1)C(=O)N[C@@H](C)C(=O)N[C@@H](CC(N)=O)C(N)=O` [GIGGALLSAGKAALKGLAKGLAEHFAN], the MIC was found to be 12 µM (≈ 30.4 µg/mL) in assay [15], 6 µM (≈ 15.2 µg/mL) in [16] and 3 µM (≈ 7.6 µg/mL) in assay [17].
The compound `CC[C@H](C)[C@H](NC(=O)[C@@H](N)Cc1cnc[nH]1)C(=O)N[C@@H](CCC(N)=O)C(=O)N[C@@H](CCCCN)C(=O)N[C@@H](CCC(=O)O)C(=O)N[C@@H](CC(=O)O)C(=O)N[C@H](C(=O)N1CCC[C@H]1C(=O)N[C@@H](CO)C(=O)N[C@@H](CCC(=O)O)C(=O)N[C@@H](CCCN=C(N)N)C(=O)N[C@@H](Cc1ccc(O)cc1)C(=O)N[C@@H](CC(C)C)C(=O)NCC(=O)N[C@@H](Cc1ccc(O)cc1)C(=O)N[C@@H](CC(C)C)C(=O)N[C@@H](CCC(=O)O)C(=O)N[C@@H](CCC(N)=O)C(=O)N[C@@H](CC(C)C)C(=O)N[C@@H](CC(C)C)C(=O)N[C@@H](CCCN=C(N)N)C(=O)N[C@@H](CC(C)C)C(=O)N[C@@H](CCCCN)C(=O)N[C@@H](CCCCN)C(=O)O)C(C)C` [HIQKEDVPSERYLGYLEQLLRLKK] registered an MIC in assay [18] of at least 186 µM.
Consider `CC(C)C[C@H](NC(=O)[C@H](CC(N)=O)NC(=O)[C@H](CCC(=O)O)NC(=O)[C@H](CC(N)=O)NC(=O)[C@H](CC(C)C)NC(=O)[C@@H](N)C(C)C)C(=O)N[C@@H](CCCN=C(N)N)C(=O)N[C@@H](CCCN=C(N)N)C(=O)O` [VLNENLRR], for which the MIC is at least 1250 µM in assay [2]; 32 µM (≈ 32.4 µg/mL) in [19]; at least 1250 µM in assay [3]; at least 1250 µM in assay [4]; at least 1250 µM in assay [5]; at least 1250 µM in assay [6]. Also, the minimal inhibitory concentration (MIC) is at least 625 µM in [7]; at least 625 µM in assay [8]; at least 1250 µM in assay [9]; at least 1250 µM in assay [10]; at least 2500 µM in assay [11]; at least 1250 µM in assay [12]. Also, the minimal inhibitory concentration (MIC) is at least 1250 µM in assay [13] and at least 2500 µM in [14].
In the case of `CC[C@H](C)[C@H](N)C(=O)N[C@@H](CCCN=C(N)N)C(=O)N[C@@H](CCCN=C(N)N)C(=O)N[C@@H](CCC(N)=O)C(=O)NCC(=O)N[C@@H](CC(C)C)C(=O)N1CCC[C@H]1C(=O)N[C@@H](CCC(=O)O)C(=O)O` [IRRQGLPE], the minimal inhibitory concentration (MIC) in assay [2] was at least 2500 µM; in assay [3] it was at least 1250 µM; in assay [4], at least 1250 µM; in assay [5], at least 625 µM; in assay [6] it was at least 1250 µM; in assay [7], at least 1250 µM. The MIC in assay [8] was at least 312 µM; in assay [9] it was at least 1250 µM; in assay [10] it was at least 1250 µM; in assay [11] it was at least 2500 µM; in assay [12] it was at least 1250 µM; in assay [13], at least 1250 µM. In assay [14], this compound came in with an MIC of at least 2500 µM.
On to `CC[C@H](C)[C@H](NC(=O)[C@H](C)NC(=O)[C@@H]1CCCN1C(=O)[C@H](CCCN=C(N)N)NC(=O)[C@@H](N)CC(C)C)C(=O)N[C@@H](CC(C)C)C(=O)N[C@H](C(=O)N[C@@H](CCCN=C(N)N)C(=O)N[C@H](C(=O)N[C@@H](CCCCN)C(N)=O)[C@@H](C)O)C(C)C` [LRPAILVRTK], for which the MIC in [15], in assay [16] and in [17] was at least 439 µM each time.
On to `CC(C)C[C@H](NC(=O)CNC(=O)[C@H](CCC(N)=O)NC(=O)[C@H](Cc1cnc[nH]1)NC(=O)[C@@H](N)CCCCN)C(=O)N1CCC[C@H]1C(=O)N[C@@H](CCC(N)=O)C(=O)N[C@@H](CCC(=O)O)C(=O)O` [KHQGLPQE], for which the MIC in [2] was at least 1250 µM; in [3], at least 1250 µM; in assay [4], at least 1250 µM; in assay [5], at least 625 µM; in assay [6] it was at least 1250 µM; in assay [7], at least 2500 µM. The MIC is at least 1250 µM in assay [8]; at least 1250 µM in assay [9]; at least 2500 µM in assay [10]; at least 1250 µM in assay [11]; at least 1250 µM in assay [12]; at least 2500 µM in assay [13]. The same compound had a minimal inhibitory concentration (MIC) in [14] of at least 1250 µM.
With `CC[C@H](C)[C@H](NC(=O)[C@H](C)NC(=O)[C@H](C)NC(=O)[C@@H]1CCCN1C(=O)[C@@H](NC(=O)[C@H](CC(C)C)NC(=O)[C@H](CO)NC(=O)[C@H](CC(C)C)NC(=O)[C@@H](N)Cc1ccccc1)[C@@H](C)CC)C(=O)N[C@@H](CO)C(=O)N[C@@H](C)C(=O)N[C@H](C(=O)N[C@@H](CO)C(=O)N[C@@H](C)C(=O)N[C@@H](CC(C)C)C(=O)N[C@@H](C)C(=O)N[C@@H](CC(N)=O)C(=O)N[C@@H](Cc1cnc[nH]1)C(N)=O)C(C)C` [FLSLIPAAISAVSALANH], the MIC in assay [15] was at least 264 µM; in [16], at least 132 µM; in assay [17], at least 33 µM.
Take `CC(C)C[C@H](NC(=O)[C@H](CC(C)C)NC(=O)[C@H](CC(N)=O)NC(=O)[C@H](CCC(=O)O)NC(=O)[C@H](CC(N)=O)NC(=O)[C@H](CC(C)C)NC(=O)[C@@H](N)C(C)C)C(=O)O` [VLNENLL]: the minimal inhibitory concentration (MIC) in assay [2] was at least 1250 µM; in assay [3], at least 312 µM; in assay [4], at least 1250 µM; in assay [5], at least 1250 µM; in assay [6], at least 1250 µM; in assay [7], at least 2500 µM. Also, the MIC in assay [8] is at least 1250 µM; in assay [9], at least 1250 µM; in assay [10], at least 2500 µM; in assay [11], at least 1250 µM; in assay [12], at least 1250 µM; in assay [13], at least 2500 µM. This compound displayed an MIC in assay [14] of at least 1250 µM.
As to `CC[C@H](C)[C@H](N)C(=O)N[C@@H](Cc1cnc[nH]1)C(=O)N[C@@H](Cc1cnc[nH]1)C(=O)N[C@@H](CCC(N)=O)C(=O)NCC(=O)N[C@@H](CC(C)C)C(=O)N1CCC[C@H]1C(=O)N[C@@H](CCC(N)=O)C(=O)N[C@@H](CCC(=O)O)C(=O)O` [IHHQGLPQE], the MIC in [2] is at least 2500 µM; in assay [3] it was at least 1250 µM; in assay [4], at least 2500 µM; in [5] it was at least 2500 µM; in assay [6], at least 2500 µM; in assay [7], at least 2500 µM. The MIC in [8] is at least 2500 µM; in assay [9] it was at least 2500 µM; in assay [10] it was at least 2500 µM; in assay [11], at least 2500 µM; in assay [12], at least 2500 µM; in [13], at least 1250 µM. This compound came in with an MIC in assay [14] of at least 2500 µM.

For the origin of these results see DBAASP.
